Key:
[1] = target: GSK-3β (Homo sapiens, UniProt P49841); test: ADP Glo GSK-3β kinase assay; type: biochemical; conditions: for IC50 / GSK-3β inhibition (in words): ADP Glo kinase assay; for IC50: n = 2 (14b n = 5, 24 n = 3), read-out: IC50 (µM) Mean ± SEM GSK-3β; for GSK-3β inhibition (in words): hit 1 from kinome-wide screening
Protocol: To extend the biological profile of this novel class of 7-chloro-9H-pyrimido[4,5-b]indole-based GSK-3β inhibitors, we tested the lead compound 14b for its ATP competition in our ADP Glo assay system.
ATP Binding Competition of Compound 14b
Compound 14b was analyzed for its competition with ATP in an ADP Glo GSK-3β assay. To
this end, a dilution series of 14b was incubated with 25 µM, 100 µM and 500 µM of ATP and
corresponding IC50 values were determined. Results and inhibition curves are listed in
Table S1. IC50 values for compound 14b in the ATP binding competition experiment.
ATP concentration [µM] GSK-3β
a IC50 values were determined in an ADP Glo kinase assay , n = 1; b n = 5.
Figure S3. Inhibition curves of compound 14b in the presence of 100 µM and 500 µM ATP.
(1 picture or pasted object on this page, not shown here)

[2] = target: T1, JAK3 (Homo sapiens, UniProt P52333); test: JAK3 enzyme-linked immunosorbent assay (ELISA); type: biochemical
T1 sequence (P52333 1-1124): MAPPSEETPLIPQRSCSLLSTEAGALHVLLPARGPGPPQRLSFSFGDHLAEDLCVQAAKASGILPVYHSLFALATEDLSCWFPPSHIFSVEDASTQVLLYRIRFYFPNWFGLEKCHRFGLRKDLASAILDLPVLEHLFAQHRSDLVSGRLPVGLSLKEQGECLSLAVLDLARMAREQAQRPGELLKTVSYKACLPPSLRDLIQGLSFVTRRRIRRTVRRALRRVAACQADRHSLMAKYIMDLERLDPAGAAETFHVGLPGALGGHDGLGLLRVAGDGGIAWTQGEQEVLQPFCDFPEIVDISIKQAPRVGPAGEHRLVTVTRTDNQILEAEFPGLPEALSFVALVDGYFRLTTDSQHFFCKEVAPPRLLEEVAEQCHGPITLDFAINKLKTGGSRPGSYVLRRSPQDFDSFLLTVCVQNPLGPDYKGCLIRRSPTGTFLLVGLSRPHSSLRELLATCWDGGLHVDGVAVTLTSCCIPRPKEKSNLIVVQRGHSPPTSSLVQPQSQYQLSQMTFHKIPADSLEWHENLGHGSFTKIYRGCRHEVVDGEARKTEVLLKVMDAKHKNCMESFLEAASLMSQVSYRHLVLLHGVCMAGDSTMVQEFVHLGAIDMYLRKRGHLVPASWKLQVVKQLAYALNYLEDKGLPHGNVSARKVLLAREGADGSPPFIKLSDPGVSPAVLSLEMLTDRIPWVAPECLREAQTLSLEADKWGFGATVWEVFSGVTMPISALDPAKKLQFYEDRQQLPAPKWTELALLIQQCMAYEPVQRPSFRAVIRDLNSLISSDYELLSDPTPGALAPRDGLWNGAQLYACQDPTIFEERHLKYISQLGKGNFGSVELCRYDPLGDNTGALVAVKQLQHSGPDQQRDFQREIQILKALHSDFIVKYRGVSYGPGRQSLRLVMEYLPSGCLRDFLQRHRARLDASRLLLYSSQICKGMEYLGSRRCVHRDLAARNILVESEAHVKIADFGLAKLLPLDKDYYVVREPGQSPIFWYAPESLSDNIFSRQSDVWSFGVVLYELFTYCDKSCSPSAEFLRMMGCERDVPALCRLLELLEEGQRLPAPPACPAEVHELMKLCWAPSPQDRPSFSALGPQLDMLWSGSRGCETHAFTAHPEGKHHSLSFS
Protocol: Furthermore, 14b and 24 were examined for their inhibitory activity on the possible off-target JAK3, as this class of GSK-3β inhibitors is derived from the pan-JAK inhibitor tofacitinib.
JAK3 Inhibition by Compounds 14b and 24
Compound 14b and 24 were analyzed for their inhibitory activity on JAK3 in an enzyme -
linked immunosorbent assay (ELISA). Single point measurements at compound
concentrations of 5 µM were conducted .
Table S2. JAK3 inhibition of 14b and 24 in the ELISA.
Cpd. JAK3 inhibition [%] a […]

[3] = Metabolic stability in human liver microsomes (HLM); type: in vitro ADME; conditions: after an incubation time of 120 min, substrate 100 µM
Protocol: In a HLM stability assay, 14b and 24 were intensively degraded during a timeframe of 120 min (25% and 8% remaining parent compound at the endpoint of the experiment, respectively; for details see Tables S3 and S4 as well as Figures S4 and S5, Supplementary Materials). The corresponding unsubstituted piperidines were observed as prominent metabolites.
Metabolism in Human Liver Microsomes (HLM) of Compounds 14b and 24
Microsomes from liver, pooled from human (male and female) (Lot: SLBQ7487V) were purchased from Merck (Schnelldorf, Germany). The substrate (compounds 14b and 24, respectively) (100 µM), an NADPH-regenerating syst em (5 mM Glucose-6-phosphate, 5 U/mL Glucose -6-phosphate dehydrogenase and 1 mM NADP +) and 4 mM MgCl2⋅6 H2O in 0.1 M Tris buffer (pH 7.4) were preincubated for 5 min at 37°C and 750 rpm on a shaker. The reaction was started by the addition of HLM and then split into aliquots (50 µL). The reaction was quenched at […] time points (0, 10, 20, 30, 60 and 120 min) by addition of 100 µL internal standard (30 µM in MeCN). The samples were vortexed for 30 s and centrifuged (19,800 relative centrifugal force/4°C/10 min). The supernatant was directly used for LC-MS analysis (see below). All incubations were conducted in triplicates. […]
The metabolite formation was analyzed with an Alliance 2695 Separations Module (Waters GmbH, Eschborn). […]

Chain of GSK-3β (P49841 whole entry): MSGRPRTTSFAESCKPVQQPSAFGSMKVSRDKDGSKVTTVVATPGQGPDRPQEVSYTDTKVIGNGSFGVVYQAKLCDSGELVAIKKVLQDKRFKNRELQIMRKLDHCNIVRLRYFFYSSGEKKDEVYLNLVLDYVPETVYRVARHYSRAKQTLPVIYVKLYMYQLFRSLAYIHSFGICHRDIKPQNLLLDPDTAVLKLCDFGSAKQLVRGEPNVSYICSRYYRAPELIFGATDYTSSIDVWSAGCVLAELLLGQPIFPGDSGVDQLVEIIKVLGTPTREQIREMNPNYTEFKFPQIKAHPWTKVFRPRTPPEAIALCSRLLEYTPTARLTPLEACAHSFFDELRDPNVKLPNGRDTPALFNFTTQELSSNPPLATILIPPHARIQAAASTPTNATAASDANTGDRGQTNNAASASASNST

Row | IC50 [1] | GSK-3β inhibition (in words) [1] | SMILES | other results
1 | 0.13 ± 0.008 µM | – | N#CCCN1CC[C@@H]2CCN(c3ncnc4[nH]c5cc(Cl)ccc5c34)[C@@H]2C1 (racemic) [Compound 24, 3-(3aRS,7aSR)-(1-(7-Chloro-9H-pyrimido[4,5-b]indol-4-yl)octahydro-6H-pyrrolo[2,3-c]pyridin-6-yl)-propanenitrile] | increase in potency on GSK-3β ([1]; compared to unrigidized counterpart 14b): 6 fold; inhibition of JAK3 (in words) ([2]; ELISA): no significant inhibition; inhibition at 5 µM ([2]; single point measurements at compound concentrations of 5 µM, n = 3): 31.8 ± 3.8%; Metabolic stability [%], remaining parent compound [3]: 8%
2 | – | single-digit micromolar range | C[C@@H]1CCN(C(=O)CC#N)C[C@@H]1N(C)c1ncnc2[nH]c3cc(Cl)ccc3c12 [Compound 1, 3-((3R,4R)-3-((7-Chloro-9H-pyrimido[4,5-b]indol-4-yl)(methyl)amino)-4-methylpiperidin-1-yl)-3-oxopropanenitrile] | –
3 | 1.86 ± 0.113 µM | – | CN(c1ncnc2[nH]c3cc(Cl)ccc3c12)C1CCCN(C(=O)CC#N)C1 (stereo not drawn) [Compound 14a, 3-(3-((7-Chloro-9H-pyrimido[4,5-b]indol-4-yl)(methyl)amino)piperidin-1-yl)-3-oxopropanenitrile] | –
4 | > 10 µM | dramatic decrease in activity | CN(c1ncnc2[nH]c3cc(Cl)ccc3c12)C1CCCN(CCC(N)=O)C1 (stereo not drawn) [Compound 14c, 3-(3-((7-Chloro-9H-pyrimido[4,5-b]indol-4-yl)(methyl)amino)piperidin-1-yl)propanamide] | –
5 | > 10 µM | dramatic decrease in activity | COC(=O)CCN1CCCC(N(C)c2ncnc3[nH]c4cc(Cl)ccc4c23)C1 (stereo not drawn) [Compound 14d, Methyl-3-(3-((7-chloro-9H-pyrimido[4,5-b]indol-4-yl)(methyl)amino)piperidin-1-yl)propanoate] | –
6 | > 10 µM | severe decrease in activity | CCCN1CCCC(N(C)c2ncnc3[nH]c4cc(Cl)ccc4c23)C1 (stereo not drawn) [Compound 14e, 7-Chloro-N-methyl-N-(1-propylpiperidin-3-yl)-9H-pyrimido[4,5-b]indol-4-amine] | –
7 | > 10 µM | severe decrease in activity | CC(C)N1CCCC(N(C)c2ncnc3[nH]c4cc(Cl)ccc4c23)C1 (stereo not drawn) [Compound 14f, 7-Chloro-N-(1-isopropylpiperidin-3-yl)-N-methyl-9H-pyrimido[4,5-b]indol-4-amine] | –
8 | > 10 µM | severe decrease in activity | CN(c1ncnc2[nH]c3cc(Cl)ccc3c12)C1CCCN(C2CCCC2)C1 (stereo not drawn) [Compound 14g, 7-Chloro-N-(1-cyclopentylpiperidin-3-yl)-N-methyl-9H-pyrimido[4,5-b]indol-4-amine] | –
9 | > 10 µM | – | CN(c1ncnc2[nH]c3cc(Cl)ccc3c12)C1CCCN(Cc2ccco2)C1 (stereo not drawn) [Compound 14h, 7-Chloro-N-(1-(furan-2-ylmethyl)piperidin-3-yl)-N-methyl-9H-pyrimido[4,5-b]indol-4-amine] | –
10 | > 10 µM | – | CN(c1ncnc2[nH]c3cc(Cl)ccc3c12)C1CCCN(Cc2ccncc2)C1 (stereo not drawn) [Compound 14i, 7-Chloro-N-methyl-N-(1-(pyridin-4-ylmethyl)piperidin-3-yl)-9H-pyrimido[4,5-b]indol-4-amine] | –
11 | > 10 µM | – | CN(c1ncnc2[nH]c3cc(Cl)ccc3c12)C1CCCN(Cc2cccc(C#N)c2)C1 (stereo not drawn) [Compound 14j, 3-((3-((7-Chloro-9H-pyrimido[4,5-b]indol-4-yl)(methyl)amino)piperidin-1-yl)methyl)benzonitrile] | –
12 | > 10 µM | inactive | CN(c1ncnc2[nH]c3cc(Cl)ccc3c12)C1CCCN(CCC(F)(F)F)C1 (stereo not drawn) [Compound 14k, 7-Chloro-N-methyl-N-(1-(3,3,3-trifluoropropyl)piperidin-3-yl)-9H-pyrimido[4,5-b]indol-4-amine] | –
13 | > 10 µM | inactive | CN(c1ncnc2[nH]c3cc(Cl)ccc3c12)C1CCCN(CC#N)C1 (stereo not drawn) [Compound 14l, 2-(3-((7-Chloro-9H-pyrimido[4,5-b]indol-4-yl)(methyl)amino)piperidin-1-yl)acetonitrile] | –
14 | > 10 µM | severe decrease in activity | CN(c1ncnc2[nH]c3cc(Cl)ccc3c12)C1CCCN(CC2CC2)C1 (stereo not drawn) [Compound 14m, 7-Chloro-N-(1-(cyclopropylmethyl)piperidin-3-yl)-N-methyl-9H-pyrimido[4,5-b]indol-4-amine] | –
15 | 3.56 ± 0.664 µM | remarkably reduced GSK-3β inhibition | CN(C)CCCN1CCCC(N(C)c2ncnc3[nH]c4cc(Cl)ccc4c23)C1 (stereo not drawn) [Compound 14n, 7-Chloro-N-(1-(3-(dimethylamino)propyl)piperidin-3-yl)-N-methyl-9H-pyrimido[4,5-b]indol-4-amine] | –
16 | > 10 µM | inactive | CN(c1ncnc2c1c1ccc(Cl)cc1n2C)C1CCCN(CCC#N)C1 (stereo not drawn) [Compound 14o, 3-(3-((7-Chloro-9-methyl-9H-pyrimido[4,5-b]indol-4-yl)(methyl)amino)piperidin-1-yl)propanenitrile] | –
17 | 7.02 ± 1.08 µM | – | CN(c1ncnc2[nH]c3cc(Cl)ccc3c12)C1CCN(CCC#N)C1 (stereo not drawn) [Compound 15, 3-(3-((7-Chloro-9H-pyrimido[4,5-b]indol-4-yl)(methyl)amino)pyrrolidin-1-yl)propanenitrile] | –
18 | 1.54 ± 0.284 µM | – | CN(c1ncnc2[nH]c3cc(Cl)ccc3c12)C1CCCN(CCC#N)CC1 (stereo not drawn) [Compound 16, 3-(4-((7-Chloro-9H-pyrimido[4,5-b]indol-4-yl)(methyl)amino)azepan-1-yl)propanenitrile] | –
19 | 13.3 ± 4.39 µM | – | CN(c1ncnc2[nH]c3cc(Cl)ccc3c12)C1CCN(CCC#N)CC1 [Compound 17, 3-(4-((7-Chloro-9H-pyrimido[4,5-b]indol-4-yl)(methyl)amino)piperidin-1-yl)propanenitrile] | –
